# Columns and labels:
# [1] = target: plasmin (pig) (Sus scrofa, UniProt P06867); experiment: Km, Vmax and Vmax/Km of substrates for plasmin (pig); assay type: biochemical, Porcine (pig); conditions: for Vmax (× 10^-7): TABLE 2, CHA substrates, plasmin (pig), 2,6-xylenol 615 nm; for Vmax (× 10^7): TABLE 1, PNA substrates, plasmin (pig), 405 nm
# [2] = target: Thrombin (TH) (Bos taurus, UniProt P00735); assay type: biochemical, Cow; conditions: pH 8.4, 37° C., 10 minutes, 1.0 NIH/ml; for Selectivity TH, absorbance (O.D.) at 645 nm: TABLE 4, CHA substrates, So = 0.54; for Selectivity TH, absorbance (O.D.) at 405 nm: TABLE 3, PNA substrates, So = 0.54 mmole/l
# Method: (§1) The specificities of the novelly synthesized substrates were tested by reacting them with various enzymes respectively.
# (§2) (1) Substrate solution concentration: 35 mmole/liter H2 O
# (§3) (2) Buffer: Tris-hydrochloric acid buffer 50 mmole/l, NaCl 150 mmole/l (0.875%) was employed, and the pH for reaction was as follows depending on the enzyme.
# (§4) 2,6-Xylenol 7.0 mmole+NaIO4 1.5 mmole/0.2N KOH
# (§5) 0.5 ml of the buffer solution and 0.05 ml of the enzyme reagent were taken into a silicon-treated hard glass test tube or a plastic test tube, and preheated in a constant temperature bath at 37° C. for 5 minutes. Thereafter, 0.1 ml of the substrate solution was added to effect the enzymatic reaction at 37° C. for 10 minutes. Exactly after 10 minutes, 2.5 ml of the reaction terminating solution or the terminating and color developing reagent solution was added to terminate the enzymatic reaction, and after allowing to stand at 25° C. for 10 minutes, the absorbance at 405 nm or 645 nm was measured, in which [drawing 49]
# [3] = target: Plasmin (PL) (Sus scrofa, UniProt P06867); assay type: biochemical, Pig; conditions: pH 7.4, 37° C., 10 minutes, 0.32 CU/ml; for Selectivity PL, absorbance (O.D.) at 645 nm: TABLE 4, CHA substrates, So = 0.54; for Selectivity PL, absorbance (O.D.) at 405 nm: TABLE 3, PNA substrates, So = 0.54 mmole/l
# Method: as §2, §3
# Plasmin Pig Sigma (U.S.A.)
# as §5
# [4] = target: Kallikrein (KL) (Sus scrofa, UniProt P00752); assay type: biochemical, Pig; conditions: pH 7.9, 37° C., 10 minutes, 1.0 BAEE-U/ml; for Selectivity KL, absorbance (O.D.) at 645 nm: TABLE 4, CHA substrates, So = 0.54; for Selectivity KL, absorbance (O.D.) at 405 nm: TABLE 3, PNA substrates, So = 0.54 mmole/l
# Method: as §1, §2, §3, §4, §5
# [5] = target: Factor-Xa (FXa) (Bos taurus, UniProt P00743); assay type: biochemical, Cow; conditions: pH 8.4, 37° C., 10 minutes, 0.4 U/ml; for Selectivity FXa, absorbance (O.D.) at 645 nm: TABLE 4, CHA substrates, So = 0.54; for Selectivity FXa, absorbance (O.D.) at 405 nm: TABLE 3, PNA substrates, So = 0.54 mmole/l
# Method: as §1, §2, §3, §4, §5
# [6] = target: Urokinase (UK) (Homo sapiens, UniProt P00749); assay type: biochemical; conditions: pH 8.2, 37° C., 10 minutes, 1000 IU/ml; for Selectivity UK, absorbance (O.D.) at 645 nm: TABLE 4, CHA substrates, So = 0.54; for Selectivity UK, absorbance (O.D.) at 405 nm: TABLE 3, PNA substrates, So = 0.54 mmole/l
# Method: as §1, §2, §3, §4, §5
# [7] = TABLE 2, V/Km of each sample divided by that of S2251 (so in the source)
# [8] = TABLE 1, V/Km of each sample divided by that of S2251
# Factor-Xa (FXa), sequence (P00743 41-180): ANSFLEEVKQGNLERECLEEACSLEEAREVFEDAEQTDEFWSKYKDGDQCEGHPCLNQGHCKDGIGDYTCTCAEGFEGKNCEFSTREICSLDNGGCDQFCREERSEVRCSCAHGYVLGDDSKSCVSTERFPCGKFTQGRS
# Factor-Xa (FXa), sequence (P00743 234-492): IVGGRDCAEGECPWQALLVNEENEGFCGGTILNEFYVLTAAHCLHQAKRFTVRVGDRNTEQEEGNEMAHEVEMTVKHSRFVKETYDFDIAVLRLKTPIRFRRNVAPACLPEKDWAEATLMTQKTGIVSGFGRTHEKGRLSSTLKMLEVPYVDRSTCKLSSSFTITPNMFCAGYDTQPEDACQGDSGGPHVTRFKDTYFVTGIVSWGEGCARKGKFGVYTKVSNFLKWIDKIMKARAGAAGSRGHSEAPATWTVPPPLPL
# plasmin (pig), sequence (P06867 97-809): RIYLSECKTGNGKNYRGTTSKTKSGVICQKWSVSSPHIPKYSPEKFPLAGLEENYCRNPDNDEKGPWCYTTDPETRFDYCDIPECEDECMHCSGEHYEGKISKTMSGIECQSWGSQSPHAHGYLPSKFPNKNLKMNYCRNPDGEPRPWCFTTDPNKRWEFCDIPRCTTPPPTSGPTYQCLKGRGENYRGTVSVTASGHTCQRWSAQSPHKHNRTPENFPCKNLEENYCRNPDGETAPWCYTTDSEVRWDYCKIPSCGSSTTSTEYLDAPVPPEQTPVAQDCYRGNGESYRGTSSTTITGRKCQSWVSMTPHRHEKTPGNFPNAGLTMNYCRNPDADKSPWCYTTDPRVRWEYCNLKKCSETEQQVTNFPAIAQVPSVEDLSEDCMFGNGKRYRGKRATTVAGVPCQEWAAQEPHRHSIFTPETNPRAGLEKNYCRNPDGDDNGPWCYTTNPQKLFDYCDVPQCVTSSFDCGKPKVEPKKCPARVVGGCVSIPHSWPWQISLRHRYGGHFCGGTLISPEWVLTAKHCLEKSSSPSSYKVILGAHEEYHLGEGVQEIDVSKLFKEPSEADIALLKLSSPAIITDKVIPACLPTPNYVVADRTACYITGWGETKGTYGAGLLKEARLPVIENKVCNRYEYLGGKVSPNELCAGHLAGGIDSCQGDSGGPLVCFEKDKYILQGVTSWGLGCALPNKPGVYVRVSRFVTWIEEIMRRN
# Plasmin (PL), sequence (P06867 97-809): as above
# Kallikrein (KL), sequence (P00752 8-246): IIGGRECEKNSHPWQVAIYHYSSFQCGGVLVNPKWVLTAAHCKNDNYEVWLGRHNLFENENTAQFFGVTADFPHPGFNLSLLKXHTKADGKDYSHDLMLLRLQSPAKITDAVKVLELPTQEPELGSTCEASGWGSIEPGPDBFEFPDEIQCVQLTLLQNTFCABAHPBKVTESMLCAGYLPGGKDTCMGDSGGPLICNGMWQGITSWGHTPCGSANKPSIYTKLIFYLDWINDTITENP
# Thrombin (TH), sequence (P00735 44-625): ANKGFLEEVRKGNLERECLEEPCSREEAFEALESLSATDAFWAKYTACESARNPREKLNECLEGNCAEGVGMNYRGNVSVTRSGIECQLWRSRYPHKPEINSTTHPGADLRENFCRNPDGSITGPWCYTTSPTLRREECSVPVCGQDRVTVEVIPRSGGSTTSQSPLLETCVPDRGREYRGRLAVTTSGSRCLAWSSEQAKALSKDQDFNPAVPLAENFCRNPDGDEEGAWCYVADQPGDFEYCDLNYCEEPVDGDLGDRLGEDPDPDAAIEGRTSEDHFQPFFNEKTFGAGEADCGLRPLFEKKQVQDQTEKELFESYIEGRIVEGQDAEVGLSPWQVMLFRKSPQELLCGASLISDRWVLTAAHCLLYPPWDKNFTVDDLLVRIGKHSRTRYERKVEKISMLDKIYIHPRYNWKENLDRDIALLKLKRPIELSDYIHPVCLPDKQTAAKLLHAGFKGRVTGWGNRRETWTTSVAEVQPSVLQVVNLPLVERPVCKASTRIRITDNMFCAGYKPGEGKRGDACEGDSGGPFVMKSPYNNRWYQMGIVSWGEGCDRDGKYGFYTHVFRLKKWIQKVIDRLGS
SMILES,Vmax (× 10^-7) [1],"Relative ratio [1, 7]","Selectivity TH, absorbance (O.D.) at 645 nm [2]","Selectivity PL, absorbance (O.D.) at 645 nm [3]","Selectivity KL, absorbance (O.D.) at 645 nm [4]","Selectivity FXa, absorbance (O.D.) at 645 nm [5]","Selectivity UK, absorbance (O.D.) at 645 nm [6]",Vmax (× 10^7) [1],"Relative ratio [1, 8]","Selectivity TH, absorbance (O.D.) at 405 nm [2]","Selectivity PL, absorbance (O.D.) at 405 nm [3]","Selectivity KL, absorbance (O.D.) at 405 nm [4]","Selectivity FXa, absorbance (O.D.) at 405 nm [5]","Selectivity UK, absorbance (O.D.) at 405 nm [6]"
NCCCC[C@H](NC(=O)[C@H](Cc1ccccc1)NC(=O)[C@H](N)CCCCNC(=O)Cc1ccccc1)C(=O)Nc1ccc(O)c(C(=O)O)c1 [NPC-16],26.986 × 10^-7,68.162,0 O.D.,0.325 O.D.,0.012 O.D.,0.002 O.D.,0.001 O.D.,,,,,,,
NCCCC[C@H](NC(=O)[C@H](Cc1ccccc1)NC(=O)[C@H](N)CCC(=O)NCCCc1ccccc1)C(=O)Nc1ccc([N+](=O)[O-])cc1 [NPN-5],,,,,,,,24.892 × 10^7,5.534,0 O.D.,0.525 O.D.,0.014 O.D.,0.005 O.D.,0.001 O.D.
"Cc1ccc(S(=O)(=O)NCCCC[C@@H](N)C(=O)N[C@@H](CC(C)C)C(=O)N[C@@H](CCCCN)C(=O)Nc2ccc(O)c(C(=O)O)c2)cc1 [NPC-12, HD-Lys(Tos)LeuLysCHA.2HBr]",25.679 × 10^-7,23.135,0.001 O.D.,0.051 O.D.,0.007 O.D.,0.002 O.D.,0.001 O.D.,,,,,,,
"CC(C)C[C@H](NC(=O)[C@H](N)C(C)C)C(=O)N[C@@H](CCCCN)C(=O)Nc1ccc(O)c(C(=O)O)c1 [NPC-1, HD-ValLeuLysCHA.2HBr]",3.556 × 10^-7,1.000,0 O.D.,0.013 O.D.,0.002 O.D.,0.002 O.D.,0 O.D.,,,,,,,
"Cc1ccc(S(=O)(=O)NCCCC[C@H](N)C(=O)N[C@@H](Cc2ccccc2)C(=O)N[C@@H](CCCCN)C(=O)Nc2ccc(O)c(C(=O)O)c2)cc1 [NPC-5, HL-Lys(Tos)PheLysCHA.2HCl]",3.159 × 10^-7,9.739,0 O.D.,0.051 O.D.,0.001 O.D.,0.002 O.D.,0 O.D.,,,,,,,
"Cc1ccc(C(=O)NCCCC[C@@H](N)C(=O)N[C@@H](Cc2ccccc2)C(=O)N[C@@H](CCCCN)C(=O)Nc2ccc(O)c(C(=O)O)c2)cc1 [NPC-6, HD-Lys(Toc)PheLysCHA.2HCl]",11.670 × 10^-7,137.973,0 O.D.,0.147 O.D.,0.007 O.D.,0.001 O.D.,0 O.D.,,,,,,,
Cc1ccc(S(=O)(=O)NCCC[C@@H](N)C(=O)N[C@@H](Cc2ccccc2)C(=O)N[C@@H](CCCCN)C(=O)Nc2ccc(O)c(C(=O)O)c2)cc1 [NPC-18],35.252 × 10^-7,58.558,0 O.D.,0.392 O.D.,0.019 O.D.,0.002 O.D.,0.001 O.D.,,,,,,,
NCCCC[C@H](NC(=O)[C@H](Cc1ccccc1)NC(=O)[C@H](N)CCCCNC(=O)OCc1ccccc1)C(=O)Nc1ccc(O)c(C(=O)O)c1 [NPC-20],40.725 × 10^-7,74.040,0 O.D.,0.467 O.D.,0.019 O.D.,0.006 O.D.,0.004 O.D.,,,,,,,
Cc1ccc(C(=O)NCCCC[C@@H](N)C(=O)N[C@@H](Cc2ccccc2)C(=O)N[C@@H](CCCCN)C(=O)Nc2ccc([N+](=O)[O-])cc2)cc1 [NPN-10],,,,,,,,26.218 × 10^7,14.764,0.001 O.D.,0.335 O.D.,0.011 O.D.,0.006 O.D.,0.001 O.D.
Cc1ccc(CCNC(=O)CC[C@@H](N)C(=O)N[C@@H](Cc2ccccc2)C(=O)N[C@@H](CCCCN)C(=O)Nc2ccc([N+](=O)[O-])cc2)cc1 [NPN-7],,,,,,,,20.908 × 10^7,4.638,0.001 O.D.,0.427 O.D.,0.011 O.D.,0.008 O.D.,0.002 O.D.
"Cc1ccc(S(=O)(=O)Oc2ccc(C[C@@H](N)C(=O)N[C@@H](CC(C)C)C(=O)N[C@@H](CCCCN)C(=O)Nc3ccc(O)c(C(=O)O)c3)cc2)cc1 [NPC-13, HD-Tyr(Tos)LeuLysCHA.2HCl]",17.991 × 10^-7,11.225,0.002 O.D.,0.041 O.D.,0.004 O.D.,0.001 O.D.,0.001 O.D.,,,,,,,
NCCCC[C@H](NC(=O)[C@H](Cc1ccccc1)NC(=O)[C@H](N)CC(=O)OC1CCCCC1)C(=O)Nc1ccc(O)c(C(=O)O)c1 [NPC-22],17.991 × 10^-7,42.715,0 O.D.,0.213 O.D.,0.023 O.D.,0.015 O.D.,0.026 O.D.,,,,,,,
"NCCCC[C@H](NC(=O)[C@H](Cc1ccccc1)NC(=O)[C@H](N)CCCCNS(=O)(=O)c1ccc2ccccc2c1)C(=O)Nc1ccc(O)c(C(=O)O)c1 [NPC-8, HD-Lys(NaS)PheLysCHA.2HCl]",30.814 × 10^-7,154.748,0 O.D.,0.498 O.D.,0.011 O.D.,0.002 O.D.,0.002 O.D.,,,,,,,
Cc1ccc(CCOC(=O)CC[C@@H](N)C(=O)N[C@@H](Cc2ccccc2)C(=O)N[C@@H](CCCCN)C(=O)Nc2ccc([N+](=O)[O-])cc2)cc1 [NPN-9],,,,,,,,30.202 × 10^7,6.171,0 O.D.,0.299 O.D.,0.016 O.D.,0.006 O.D.,0.002 O.D.
"CC(C)[C@@H](N)C(=O)N[C@@H](Cc1ccccc1)C(=O)N[C@@H](CCCCN)C(=O)Nc1ccc(O)c(C(=O)O)c1 [NPC-2, HD-ValPheLysCHA.2HCl]",8.266 × 10^-7,11.811,0.002 O.D.,0.090 O.D.,0.006 O.D.,0.004 O.D.,0.002 O.D.,,,,,,,
NCCCC[C@@H](N)C(=O)N[C@@H](Cc1ccccc1)C(=O)N[C@@H](CCCCN)C(=O)Nc1ccc(O)c(C(=O)O)c1 [NPC-3],7.506 × 10^-7,30.432,0 O.D.,0.096 O.D.,0.004 O.D.,0.002 O.D.,0 O.D.,,,,,,,
"Cc1cc(C)c(S(=O)(=O)NCCCC[C@@H](N)C(=O)N[C@@H](Cc2ccccc2)C(=O)N[C@@H](CCCCN)C(=O)Nc2ccc(O)c(C(=O)O)c2)c(C)c1 [NPC-10, HD-Lys(Mst)PheLysCHA.2HCl]",28.445 × 10^-7,94.369,0 O.D.,0.344 O.D.,0.010 O.D.,0.002 O.D.,0.001 O.D.,,,,,,,
